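GI50 = concentration required for 50% inhibition of growth. At the TGI there is no net growth.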
Legend:
Assay in all cases: DTP human tumour cell line panel, 384-well format
RXF 393 renal = system: RXF 393 renal
U251 glioblastoma = system: U251 glioblastoma
UO-31 renal = system: UO-31 renal
MALME-3M melanoma = system: MALME-3M melanoma
NCI-H23 lung = system: NCI-H23 lung
TK-10 renal = system: TK-10 renal
PC-3 prostate = system: PC-3 prostate
ACHN renal = system: ACHN renal
HCT-116 colon = system: HCT-116 colon
HCT-15 colon = system: HCT-15 colon
NCI-H322M lung = system: NCI-H322M lung
SF-268 CNS = system: SF-268 CNS
SK-MEL-2 melanoma = system: SK-MEL-2 melanoma
K-562 leukemia = system: K-562 leukemia
UACC-62 melanoma = system: UACC-62 melanoma
DU-145 prostate = system: DU-145 prostate
NCI-H522 lung = system: NCI-H522 lung
SF-539 CNS = system: SF-539 CNS
MDA-MB-468 breast = system: MDA-MB-468 breast
M14 melanoma = system: M14 melanoma
HOP-62 NSCLC = system: HOP-62 NSCLC
MCF7 breast = system: MCF7 breast
HOP-92 NSCLC = system: HOP-92 NSCLC
A498 renal = system: A498 renal
IGROV1 ovarian = system: IGROV1 ovarian
786-0 renal = system: 786-0 renal
SK-OV-3 ovarian = system: SK-OV-3 ovarian
NCI/ADR-RES ovarian = system: NCI/ADR-RES ovarian
OVCAR-4 ovarian = system: OVCAR-4 ovarian
NCI-H226 lung = system: NCI-H226 lung
KM12 colon = system: KM12 colon
HS 578T breast = system: HS 578T breast
HL-60(TB) leukemia = system: HL-60(TB) leukemia
EKVX NSCLC = system: EKVX NSCLC
SNB-19 CNS = system: SNB-19 CNS
OVCAR-3 ovarian = system: OVCAR-3 ovarian
MDA-MB-435 melanoma = system: MDA-MB-435 melanoma
OVCAR-8 ovarian = system: OVCAR-8 ovarian
BT-549 breast = system: BT-549 breast
SW-620 colon = system: SW-620 colon
MOLT-4 leukemia = system: MOLT-4 leukemia
SF-295 CNS = system: SF-295 CNS
HT29 colon = system: HT29 colon
OVCAR-5 ovarian = system: OVCAR-5 ovarian
CCRF-CEM leukemia = system: CCRF-CEM leukemia
A549 NSCLC = system: A549 NSCLC
LOX IMVI melanoma = system: LOX IMVI melanoma
SN12C renal = system: SN12C renal
RPMI-8226 leukemia = system: RPMI-8226 leukemia
T-47D breast = system: T-47D breast
SK-MEL-28 melanoma = system: SK-MEL-28 melanoma
MDA-MB-231 breast = system: MDA-MB-231 breast
SNB-75 CNS = system: SNB-75 CNS
CAKI-1 renal = system: CAKI-1 renal
UACC-257 melanoma = system: UACC-257 melanoma

## Clc1ccc(C(c2ccccc2Cl)C(Cl)Cl)cc1 (stereo not given)
RXF 393 renal
  GI50: 13.2 µM
  TGI: 26.1 µM
U251 glioblastoma
  GI50: 16.6 µM
  TGI: 30.5 µM
UO-31 renal
  GI50: 16.6 µM
  TGI: 30.5 µM
MALME-3M melanoma
  GI50: 14.7 µM
  TGI: 27.9 µM
NCI-H23 lung
  GI50: 17 µM
  TGI: 30.9 µM
TK-10 renal
  GI50: 16.7 µM
  TGI: 30.6 µM
PC-3 prostate
  GI50: 14.3 µM
  TGI: 27.6 µM
ACHN renal
  GI50: 16 µM
  TGI: 29.6 µM
HCT-116 colon
  GI50: 14.5 µM
  TGI: 28.2 µM
HCT-15 colon
  GI50: 13.9 µM
  TGI: 27.3 µM
NCI-H322M lung
  GI50: 18.8 µM
  TGI: 33.2 µM
SF-268 CNS
  GI50: 16.7 µM
  TGI: 30.5 µM
SK-MEL-2 melanoma
  GI50: 19.1 µM
  TGI: 33.2 µM
K-562 leukemia
  GI50: 17.9 µM
  TGI: 32.1 µM
UACC-62 melanoma
  GI50: 17 µM
  TGI: 30.8 µM
DU-145 prostate
  GI50: 16.8 µM
  TGI: 30.7 µM
NCI-H522 lung
  GI50: 12.9 µM
  TGI: 25.7 µM
SF-539 CNS
  GI50: 17.3 µM
  TGI: 31.2 µM
MDA-MB-468 breast
  GI50: 10.7 µM
  TGI: 22.7 µM
M14 melanoma
  GI50: 16.6 µM
  TGI: 30.4 µM
HOP-62 NSCLC
  GI50: 19.5 µM
  TGI: 33.7 µM
MCF7 breast
  GI50: 17.6 µM
  TGI: 31.7 µM
HOP-92 NSCLC
  GI50: 15.1 µM
  TGI: 28.5 µM
A498 renal
  GI50: 17.4 µM
  TGI: 31.3 µM
IGROV1 ovarian
  GI50: 15 µM
  TGI: 28.4 µM
786-0 renal
  GI50: 16.2 µM
  TGI: 29.9 µM
SK-OV-3 ovarian
  GI50: 16.1 µM
  TGI: 29.8 µM
NCI/ADR-RES ovarian
  GI50: 17.4 µM
  TGI: 31.4 µM
OVCAR-4 ovarian
  GI50: 15.7 µM
  TGI: 29.3 µM
NCI-H226 lung
  GI50: 16.2 µM
  TGI: 29.9 µM
KM12 colon
  GI50: 16.3 µM
  TGI: 30.1 µM
HS 578T breast
  GI50: 17 µM
  TGI: 30.8 µM
HL-60(TB) leukemia
  GI50: 10.5 µM
  TGI: 22.4 µM
EKVX NSCLC
  GI50: 17.3 µM
  TGI: 31.2 µM
SNB-19 CNS
  GI50: 17.2 µM
  TGI: 31.2 µM
OVCAR-3 ovarian
  GI50: 15.5 µM
  TGI: 29 µM
MDA-MB-435 melanoma
  GI50: 16.8 µM
  TGI: 30.7 µM
OVCAR-8 ovarian
  GI50: 17 µM
  TGI: 30.9 µM
BT-549 breast
  GI50: 18.5 µM
  TGI: 32.6 µM
SW-620 colon
  GI50: 15.1 µM
  TGI: 28.7 µM
MOLT-4 leukemia
  GI50: 5.16 µM
  TGI: 17.6 µM
SF-295 CNS
  GI50: 16.2 µM
  TGI: 29.8 µM
HT29 colon
  GI50: 15.1 µM
  TGI: 28.9 µM
OVCAR-5 ovarian
  GI50: 16.8 µM
  TGI: 30.7 µM
CCRF-CEM leukemia
  GI50: 16.2 µM
  TGI: 29.8 µM
A549 NSCLC
  GI50: 16.9 µM
  TGI: 31 µM
LOX IMVI melanoma
  GI50: 16.4 µM
  TGI: 30.1 µM
SN12C renal
  GI50: 15.7 µM
  TGI: 29.3 µM
RPMI-8226 leukemia
  GI50: 14 µM
  TGI: 27 µM
T-47D breast
  GI50: 15.5 µM
  TGI: 29.1 µM
SK-MEL-28 melanoma
  GI50: 17.6 µM
  TGI: 31.5 µM
MDA-MB-231 breast
  GI50: 16.4 µM
  TGI: 30.1 µM
SNB-75 CNS
  GI50: 17.8 µM
  TGI: 32.3 µM
CAKI-1 renal
  GI50: 12.9 µM
  TGI: 25.7 µM
UACC-257 melanoma
  GI50: 17.6 µM
  TGI: 31.5 µM

From PubChem BioAssay (NCI)
